The values below come from US20220236255A1, “Self-Contained Responsive Biological Systems and Methods” (Arizona Board of Regents on Behalf of the University of …, priority 2019, published 2022).

In assay [1] the test system is SK-MEL-28 cells. The experiment in a line: Modified MTT drug response assay, withaferin A, 72 hours. The format is cell-based, human. The following applies: WFA 72 hours, read-out: IC50 (concentration resulting in 50% of cell death). Here is the method: A modified MTT experiment was developed from CellTiter 96 NonRadioactive Cell Proliferation Assay kit (Promega). Treated leaves were cut into 1×1 cm sized pieces and fit to the bottom of an untreated 48-well plate. 0.75×0.75 cm inserts were placed in the well on the top of the leaf, cells were plated at 10,000 cells/insert and incubated at 37° C. with 5% CO2 atmosphere. After 24 hours, the inserts were removed and leaves with attached cells were cut and re-plated into non-treated 96-well plates. In parallel, cells were also directly seeded into a treated 96-well plate at a concentration of 5000 cells/well. The medium was refreshed every 72 hours. Tetrazolium component was added at day 1, 3, 5 and 7 and absorbance of formazan product was measured at 570 nm by using Epoch microplate spectrophotometer (Biotek Instruments). For the drug response assay, withaferin A (WFA) was added at concentrations ranging from 0.156 to 40 μM and incubated for 72 hours prior to the addition of the […]. […]
Microphthalmia-associated Transcription Factor (MITF) is a lineage-determining transcription factor critical for regulation of the melanocytic lineage during development and implicated as both a melanoma tumor suppressor and oncogene. […] Gene expression was then analyzed by qRT-PCR for MITF and three genes of the MITF-high expression signature (SOX10, MLANA and TYR). […]
(In general: Tetrazolium dyes change colour on reduction, which living cells bring about.)

Assay [2] concerns RFP-transfected dermal fibroblasts spheroids. Description: Growth of irradiated dermal fibroblast spheroids pre-treated with everolimus. In kind it is cell-based. The following applies: everolimus 24 h before 4 Gy-irradiation; growth monitored for 8 days. The protocol:
FIG. 33 RFP-transfected dermal fibroblasts spheroids have been exposed to different concentrations of everolimus 24 h before 4 Gy-irradiation and their growth monitored for 8 days.

Assay [3] concerns organoids of GFP-tagged glioblastoma U87 cells and RFP-tagged neural progenitor cells (NPCs). Description: Organoid fluorescence (cell viability) after everolimus pre-treatment and irradiation. The format is cell-based, human. To be noted: 10 nM everolimus for 24 hours before 2 Gy-irradiation; over one week. Here is the method:
(§1) Thus, the effect of a rapamycin analog, everolimus, on human cells was investigated using an in vitro organoids model. GFP-tagged glioblastoma U87 cells were cultured in presence of RFP-tagged neural progenitor cells (NPCs), differentiated from dermal fibroblasts reprogrammed to induced pluripotent stem cells, to form organoids. The organoids were exposed to 10 nM everolimus for 24 hours before 2 Gy-irradiation. […] This has been confirmed by qRT-PCR where Glast mRNA level (glioblastoma biomarker) decreases whereas SOX2 and Nestin mRNA levels (NPCs biomarkers) increase in irradiated organoids pre-treatment with everolimus (FIGS. 27A-27C).

The subject of assay [4] is Glast, SOX2 and Nestin mRNA in U87/NPC organoids. The experiment in a line: qRT-PCR of biomarker mRNA in everolimus-treated irradiated organoids. In kind it is cell-based, human. The following applies: irradiated organoids pre-treated with everolimus; qRT-PCR at day 10 after irradiation. Here is the method: as §1
A general note: In qPCR the cycle at which signal appears reflects the starting amount.

pIC50: −log10 of the molar value. Like-named read-outs stand apart in the source and are kept apart here.

Consider `CC1=C(CO)C(=O)O[C@@H]([C@@H](C)[C@H]2CC[C@H]3[C@@H]4C[C@H]5O[C@]56[C@@H](O)C=CC(=O)[C@]6(C)[C@H]4CC[C@]23C)C1` [WFA, withaferin A], for which the pIC50 in assay [1] (SK-MEL-28 cells seeded on decellularized spinach leaf scaffold) was 5.28; in assay [1] (SK-MEL-28 cells seeded on stiff substrate (TCPS)) it was 5.96.

Consider `CO[C@H]1C[C@@H]2CC[C@@H](C)[C@@](O)(O2)C(=O)C(=O)N2CCCC[C@H]2C(=O)O[C@H]([C@H](C)C[C@@H]2CC[C@@H](OCCO)[C@H](OC)C2)CC(=O)[C@H](C)/C=C(\C)[C@@H](O)[C@@H](OC)C(=O)[C@H](C)C[C@H](C)/C=C/C=C/C=C/1C` [everolimus], for which the “growth of irradiated spheroids compared to non-pretreated spheroids” value in assay [2] is given as “increased”. In addition, in assay [3], the “GFP fluorescence intensity (U87 cells) compared to vehicle-treated organoids after irradiation” value was “decreases” and the “RFP fluorescence signal (NPCs) compared to vehicle-treated organoids after irradiation” value is listed as “increases”. In assay [4], the “Glast mRNA level (glioblastoma biomarker)” value is “decreases”, the “Nestin mRNA level (NPCs biomarker)” value was “increase” and the “SOX2 mRNA level (NPCs biomarker)” value is on record as “increase”.
